Measured values: patent US12252497B2, “Ras inhibitors” (Revolution Medicines, Inc., priority 2021, dated 2025)
Read-outs that look alike come from different tables or passages of the source.

Tests used:
[1] = system: SW1573; conditions: Canon et al., Nature 575:217-223 (2019); cited from earlier work
[2] = system: AsPC-1 (K-Ras G12D); assay: Potency assay: pERK; format: cell-based; conditions: Homo sapiens
From the text: The purpose of this assay was to measure the ability of test compounds to inhibit K-Ras in cells. Activated K-Ras induces increased phosphorylation of ERK at Threonine 202 and Tyrosine 204 (pERK). This procedure measures a decrease in cellular pERK in response to test compounds. The procedure described below in NCI-H358 cells is applicable to K-Ras G12C.
Note: This protocol may be executed substituting other cell lines to characterize inhibitors of other RAS variants, including, for example, AsPC-1 (K-Ras G12D), Capan-1 (K-Ras G12V), or NCI-H1355 (K-Ras G13C).
NCI-H358 cells were grown and maintained using media and procedures recommended by the ATCC. On the day prior to compound addition, cells were plated in 384-well cell culture plates (40 μl/well) and grown overnight in a 37° C., 5% CO2 incubator. Test compounds were prepared in 10, 3-fold dilutions in DMSO, with a high concentration of 10 mM. On the day of assay, 40 nL of test compound was added to each well of cell culture plate using an Echo550 liquid handler (LabCyte®). Concentrations of test compound were tested in duplicate. After compound addition, cells were incubated 4 hours at 37° C., 5% CO2. Following incubation, culture medium was removed and cells were washed once with phosphate buffered saline.
In some experiments, cellular pERK level was determined using the AlphaLISA SureFire Ultra p-ERK1/2 Assay Kit (PerkinElmer). Cells were lysed in 25 μL lysis buffer, with shaking at 600 RPM at room temperature. Lysate (10 μL) was transferred to a 384-well Opti-plate (PerkinElmer) and 5 μL acceptor mix was added. […] Signal was read on an Envision plate reader (PerkinElmer) using standard AlphaLISA settings. […] Signal was plotted vs. the decadal logarithm of compound concentration, and IC50 was determined by fitting a 4-parameter sigmoidal concentration response model.
In other experiments, cellular pERK was determined by In-Cell Western. […] Signal was plotted vs. the decadal logarithm of compound concentration, and IC50 was determined by fitting a 4-parameter sigmoidal concentration response model.

[3] = ASPC1, read-out: IC50 in the pERK potency assay

Row | Structure (SMILES) | IC50 [2, 3] [µM] | also measured
1 | C=CC(=O)N1CCN(c2nc(=O)n(-c3c(C)ccnc3C(C)C)c3nc(-c4c(O)cccc4F)c(F)cc23)[C@@H](C)C1 [AMG510] |  | sensitivity of cell line to RAS inhibitor [1]: insensitive
2 | CCn1c(-c2cccnc2[C@H](C)OC)c2c3cc(ccc31)-c1cc(cc(C(F)F)c1)C[C@H](NC(=O)[C@H](C1CCCC1)N1CC[C@]3(CCN(C(=O)[C@@H]4N[C@@H]4C4CC4)C3)C1)C(=O)N1CCC[C@H](N1)C(=O)OCC(C)(C)C2 [Example A18] |  | IC50 ([2]; ASPC1, AsPC-1 (K-Ras G12D) cells, read-out: IC50 in the pERK potency assay): > 8 µM
3 | CCn1c(-c2cccnc2[C@H](C)OC)c2c3cc(ccc31)-c1cc(cc(C(F)F)c1)C[C@H](NC(=O)[C@H](C(C)C)N1CC[C@]3(CCN(C(=O)[C@@H]4N[C@@H]4C4CC4)C3)C1)C(=O)N1CCC[C@H](N1)C(=O)OCC(C)(C)C2 [Example A17] | > 8 | 
4 | CCn1c(-c2cccnc2[C@H](C)OC)c2c3cc(ccc31)-c1csc(n1)C[C@H](NC(=O)[C@H](C1CCCC1)N1CC[C@]3(CCN(C(=O)[C@@]4(C)CN4)C3)C1)C(=O)N1CCC[C@H](N1)C(=O)OCC(C)(C)C2 [Example A5] | > 8 | 
